Patent US20250195212A1, “METHOD FOR GENERATING IN-SITU VASCULAR STENT AND PHOTOCURABLE DRUG-LOADED BALLOON CATHETER FOR IMPLEMENTING THE METHOD” (HANGZHOU MATRIX MEDICAL TECHNOLOGY CO., LTD., priority 2022, published 2025)

Key:
[1] = test system: porcine peripheral blood vessels; experiment: Lumen gain and protein cross-linking after angioplasty with riboflavin balloon and photo-activation
Method: A porcine peripheral blood vessel was immersed in PBS buffer. Balloons (with a pore size of 50 μm and a surface porosity of 50%) was introduced into the blood vessel. The fluid prepared in Preparation Example 1 was infused to expand the balloons from the compressed state to the inflated state at a pressure of 6 atm. While maintaining the pressure of the balloons, a light source device activated the light-guiding element to emit 450 nm light, with a photocuring duration of 5 minutes.
A porcine peripheral blood vessel was immersed in PBS buffer. Balloons prepared in Preparation Example 6 was pushed into the blood vessel. The compressed balloons were expanded by injecting fluid at a pressure of 6 atm. Then, while maintaining the pressure of the balloons, the light-guiding element emitted light with a wavelength of 450 nm, with a photocuring duration of 5 minutes.
A porcine peripheral blood vessel was immersed in PBS buffer. Balloons prepared in Preparation Example 9 was pushed into the blood vessel. The compressed balloons were expanded by injecting fluid at a pressure of 6 atm. Then, while maintaining the pressure of the balloons, the light-guiding element emitted light with a wavelength of 450 nm, with a photocuring duration of 5 minutes.
A porcine peripheral blood vessel was immersed in PBS buffer. Balloons without riboflavin were pushed into the blood vessel. […]

[2] = Permeability characterization: penetration into blood vessel slices, laser confocal microscope; type: in vitro ADME; details: 1 mg/mL dripped onto inner surface of 2*2 cm blood vessel slice
Method: 1 mg/mL of the photosensitive material with blood vessel repair function prepared in Example 1 was dripped onto the inner surface of the blood vessel, and the residual liquid on the inner surface of the blood vessel was wiped dry after a certain period of time, and the penetration depth in the blood vessel was measured using a laser confocal microscope.
Control group: a blood vessel was cut into 2*2 cm slices, with the inner surface facing upward and kept moist with 0.9% (by mass) physiological saline. 1 mg/mL of the third product in Example 1 was dripped onto the inner surface of the blood vessel, and the residual liquid on the inner surface of the blood vessel was wiped dry after a certain period of time, and the penetration depth in the blood vessel was measured using a laser confocal microscope.

| Structure (SMILES) | protein cross-linking under photo-activation / medial fiber network of treated arteries [1] | The time when the drug is observed in the adventitia of blood vessels [2] [s] |
| --- | --- | --- |
| Cc1cc2nc3c(=O)[nH]c(=O)nc-3n(C[C@H](O)[C@H](O)[C@H](O)CO)c2cc1C [riboflavin] | denser medial fiber network |  |
| N=C(N)NCCCC(N)C(=O)NCCCCC(NC(=O)C(N)CCCNC(=N)N)C(=O)NCCCCC(NC(=O)C(CCCCNC(=O)C(N)CCCNC(=N)N)NC(=O)C(N)CCCNC(=N)N)C(=O)NCCNC(=O)C(CCCCNC(=O)C(CCCCNc1ccc2c3c(cccc13)C(=O)N(CCOCCOCCOCCN1C(=O)c3cccc4c(NCCOCCOCCOCCN)ccc(c34)C1=O)C2=O)Nc1ccc2c3c(cccc13)C(=O)N(CCOCCOCCOCCN1C(=O)c3cccc4c(NCCOCCOCCOCCN)ccc(c34)C1=O)C2=O)NC(=O)C(CCCCNc1ccc2c3c(cccc13)C(=O)N(CCOCCOCCOCCN1C(=O)c3cccc4c(NCCOCCOCCOCCN)ccc(c34)C1=O)C2=O)Nc1ccc2c3c(cccc13)C(=O)N(CCOCCOCCOCCN1C(=O)c3cccc4c(NCCOCCOCCOCCN)ccc(c34)C1=O)C2=O (centres unmarked) [Experimental group] |  | 18 |
